Results taken from ChEMBL document CHEMBL1134018, “Study of aminoglycoside-nucleic acid interactions by an HPLC method” (Bioorg Med Chem Lett, 2001).

Experiments:
Nucleic Acid [1] = assay: Percent of interaction with wheat germ tRNA (type V) at a concentration of 35 uM; format: functional; conditions: Triticum aestivum
Nucleic Acid [2] = assay: Percent of interaction with calf thymus DNA (activated type XV) at a concentration of 35 uM; format: functional; conditions: Bos taurus

Compound	tRNA peak exclusion (Nucleic Acid [1])	DNA peak exclusion (Nucleic Acid [2])
CN[C@@H]1[C@H](O[C@H]2[C@H](O[C@H]3[C@H](O)[C@@H](O)[C@H](N=C(N)N)[C@@H](O)[C@@H]3N=C(N)N)O[C@@H](C)[C@]2(O)C=O)O[C@@H](CO)[C@H](O)[C@H]1O	52.5%	44.3%
NC[C@@H]1O[C@@H](O[C@H]2[C@H](O)[C@@H](O[C@H]3O[C@H](CO)[C@@H](O)[C@H](N)[C@H]3O)[C@H](N)C[C@@H]2N)[C@@H](O)[C@H](O)[C@H]1O	56%	67.3%
NC[C@@H]1O[C@H](O[C@H]2[C@@H](O)[C@H](O[C@@H]3[C@@H](O)[C@H](N)C[C@H](N)[C@H]3O[C@H]3O[C@H](CN)[C@@H](O)[C@H](O)[C@H]3N)O[C@@H]2CO)[C@H](N)[C@@H](O)[C@@H]1O	77.8%	100%
CCN[C@@H]1C[C@H](N)[C@@H](O[C@H]2OC(CN)=CC[C@H]2N)[C@H](O)[C@H]1O[C@H]1OC[C@](C)(O)[C@H](NC)[C@H]1O	55.1%	68.8%
NC[C@H]1OC(O[C@H]2[C@H](O)C(O)[C@H](N)C[C@@H]2N)C(N)[C@@H](O)[C@@H]1O (single isomer, unassigned)	47.3%	40%
NC(Cc1ccccc1)C(=O)NCC1O[C@@H](O[C@@H]2C(N)C[C@@H](N)[C@@H](O)C2O)[C@@H](N)C(O)[C@@H]1O (stereo partly drawn)	100%	100%
NC1C[C@@H](N)C(O)[C@@H](O)[C@@H]1O (single isomer, unassigned)	30.3%	–
